Patent publication US20260345605A1, “THERAPEUTIC AGENTS FOR HEART FAILURE” (Ottawa Hospital Research Institute, priority 2023, published 2026)

Tests used:
[1] = tested on: NT Pro-BNP (iCell Cardiomyocyte); assay: NT Pro-BNP ELISA in iCell Cardiomyocyte supernatants; assay type: cell-based, human; settings: 24 hour; for Mean NT Pro-BNP levels: iCell Cardiomyocyte, UT 2407.521; for Pro-NT BNP levels compared to UT and CT1 treated cells: iCell cardiomyocytes
Protocol: A secondary screening was performed with 10 drugs identified from primary screening for their ability to induce physiological remodeling using morphometric analysis and measuring the levels of B-type natriuretic peptide (BNP), as a surrogate indicator of the hypertrophic response using ELISA. The compounds were selected based on the highly enriched targets identified in the drug set enrichment analysis with a high Z score. Cryopreserved iPS cell-derived cardiomyocytes (“iCell Cardiomyocytes”) obtained from Cellular Dynamics International (CDI, Madison, WI) were used as a cell model to perform the screening.
Pro-NT BNP levels in the culture media were measured following the 24 hour treatment using the Human NT Pro-BNP DuoSet ELISA kit (R&D Systems, Minnesota USA) as per the manufacturer's instruction. […] The plates were read on BMG BioTek Molecular Devices SpectraMax Microplate Reader at 450 nm to obtain the optical density followed by reading at 540 nm for wavelength correction.
Protein levels were identified by plotting a 4 parametric logistic regression curve using the standards provided with the kit.

[2] = tested on: neonatal rat ventricular cardiomyocytes; assay: Calcium transients (Fura2-AM) in neonatal rat ventricular cardiomyocytes; assay type: cell-based; settings: for contractility / contractile function: inferred from peak calcium transient, AUC and time to peak
Protocol: Method: Freshly isolated wildtype neonatal rat ventricular cardiomyocytes were plated onto laminin coated glass coverslides, rinsed once and then loaded with 1 μM Fura2-AM (Life Technologies) for 15 min at 37 °C. After washing the cells thrice with Tyrode solution, measuring chambers were transferred onto a Nikon Eclipse TE2000-U microscope equipped with a fluorescence detection system (IonOptix). Ca^2+ transient values were recorded according to the corresponding FRET experiments. F340/F380 values in Fura2-AM experiments were calculated from the ratios of 510 nm emission light measured at 340 and 380 nm excitations.

[3] = tested on: phenylephrine induced left ventricular hypertrophy; assay: Phenylephrine-induced left ventricular hypertrophy rat model: heart weight and echocardiography; assay type: in vivo, Sprague Dawley rat
Protocol: Animal Model Preparation. Sprague Dawley rats were continuously treated with phenylephrine (PE), an α-adrenergic agonist that causes vasoconstriction leading to increased afterload and decreased ventricular function, to create a left-ventricular dysfunction animal model. […] For chronic infusion of phenylephrine, Alzet® mini-osmotic pumps (2002, Durect® Corp) containing Phenylephrine (PE) (10 mg/kg/day) or PBS vehicle were surgically implanted dorsally and subcutaneously in each Sprague Dawley rat under isoflurane anaesthesia. The animals were allowed to develop left ventricular hypertrophy for 2 weeks following the osmotic pump implantation.
Echocardiography was performed, the animals were sacrificed at 3 weeks endpoint and the blood and tissue were harvested for further analysis.

cardiomyocytes = assay: Overall observation on remodeling of treated cardiomyocytes; assay type: cell-based
Cyclin D1/CDK4 = settings: role: inhibitor; cited from earlier work
CDK6 = settings: role: inhibitor; cited from earlier work
Rb phosphorylation = settings: cited from earlier work
aurora kinase B = assay: pAurkB S727 immunofluorescence and remodeling in NRVM; assay type: cell-based, neonatal rat; settings: PE 100 μM
Protocol: Immunofluorescence was performed to validate and assess the effect of aurora B kinase inhibitor on cardiomyocyte remodeling. NRVMs were plated at a density of 2.5×10^4 cells onto 25 mm diameter collagen coated coverslip. Primary cardiomyocytes were incubated with control serum-free medium (Ctrl, SF medium), hCT1 (0.5 nM), PE (100 μM), AZD1152-HQPA (1.5 μM) and assessed for aurora kinase B activation using pAurkB s727 antibody staining. The cells were treated with a combination of PE and AZD1152 HQPA where the cells were stimulated with the drug for 4 hours following the PE treatment for 24 hours.
Post treatment, the cells were washed, fixed, and were subjected to sequential staining of primary antibodies a Actinin and phospho-AurkB (S727). The images were acquired using the Zeiss AxioVision SE64 Imaging software and analyzed using the ImageJ2 software. Immunofluorescence was used to detect α-actinin, pAurkb S727, and nuclei were stained with DAPI.

[4] = tested on: phospho-Histone 3 (Ser10); assay: phospho-Histone 3 (pH3 Ser10) staining in NRVM; assay type: cell-based, neonatal rat; settings: PE
Protocol: A one-way ANOVA test performed to assess statistical significance across treatment groups.
The effect of AZD1152-HQPA on cardiac remodeling was further validated using the phospho-Histone 3 (pH3 Ser10) staining which is the downstream target of aurora kinase B. The NRVMs were plated at a density of 2.5×10^4 cells onto 25 mm diameter collagen coated coverslip. The cells were treated with controls (hCT1, PE), AZD1152-HQPA followed by a combination of PE and AZD1152-HQPA.
Post treatment, the cells were washed, fixed, and were subjected to sequential staining of primary antibodies a Actinin and phospho-Histone 3 (Ser10). The images were acquired using the Zeiss AxioVision SE64 Imaging software and analyzed using the ImageJ software. […] The data are represented as Mean±Standard deviation.

[5] = tested on: phenylephrine induced left ventricular hypertrophy; settings: LV; HF markers; cited from earlier work
cardiac fibrosis = settings: phenylephrine, reported; cited from earlier work
[6] = LY2835219 alone and in rats subjected to phenylephrine
[7] = PE treated rats, 3 weeks LY2835219 75 mg/kg/day oral
[8] = systole and diastole, PE compared to control and LY2835219 group

For `CCN1CCN(Cc2ccc(Nc3ncc(F)c(-c4cc(F)c5nc(C)n(C(C)C)c5c4)n3)nc2)CC1` [LY2835219], the “Mean NT Pro-BNP levels” value ([1]; drug 0.25 μm) was 1232.484 pg/mL, the “Mean NT Pro-BNP levels” value ([1]; drug 0.5 μm) was 1226.226 pg/mL and the “Mean NT Pro-BNP levels” value ([1]; drug 2.5 μm) was 1747.475 pg/mL. The “Pro-NT BNP levels compared to UT and CT1 treated cells” value [1] was “comparable and/or reduced BNP levels”, the “area under the curve (AUC) of calcium transient” value ([2]; compared to control, FIG. 11) was “increased AUC compared to control” and the calcium transient levels ([2]; compared to control, FIG. 11) was “increase in calcium transient levels compared to control”. The “contractility / contractile function” value [2] was “improved contractility by modest increase in peak calcium transient levels and AUC with modest decrease in time to attain those peak levels”, the “effect in phenylephrine induced left ventricular hypertrophy” value ([3]; LY2835219 75 mg/kg/day oral, 3 weeks) was “anti-hypertrophic effect” and the cardiac output [3, 6] was “improved”. The ejection fraction [3, 6] was “improved”, the fractional shortening [3, 6] was “improved” and the stroke volume [3, 6] was “improved”. For the same compound, the “PE effect on left ventricular internal diameter” value ([3]; PE 2 weeks followed by LY2835219 3 weeks, 75 mg/kg/day oral) was “reversed”, the “cardiac function (ejection fraction, fractional shortening, stroke volume, cardiac output)” value ([3]; PE treated rats subjected to LY2835219 for 3 weeks, compared with control rats and PE treated rats) was “significantly enhanced cardiac function” and the “PE effect on thickness of left ventricular anterior wall” value [3, 7] was “reversed”. For the same compound, the “PE effect on thickness of left ventricular posterior wall” value [3, 7] was “reversed”, the “PE effect on thickness of septal wall” value [3, 7] was “reversed” and the cardiomyocyte remodeling (cardiomyocytes) was “adaptive and compensatory remodeling that resembles a physiologic growth response, adding sarcomeres in series”. For the same compound, the “inhibition of Cyclin D1/CDK4” value (Cyclin D1/CDK4) was “low nanomolar potency”, the “inhibition of CDK6” value (CDK6) was “low nanomolar potency” and the Rb phosphorylation (Rb phosphorylation) was “inhibits Rb phosphorylation”. The cell cycle arrest (Rb phosphorylation) was “G1 arrest”.

For `CNC[C@H](O)c1cccc(O)c1` [PE, phenylephrine], the “Mean NT Pro-BNP levels” value ([1]; control PE) was 3236.015 pg/mL, the “Pro-NT BNP levels compared to UT and CT1 treated cells” value [1] was “significantly elevated levels” and the AurkB activation (aurora kinase B) was “AurkB activation”. The cardiomyocyte remodeling (aurora kinase B) was “concentric hypertrophic remodeling was observed”, the “pH3 Ser10 staining” value [4] was “Increased pH3 Ser10 staining” and the “area under the curve (AUC) of calcium transient” value ([2]; compared to control, FIG. 11) was “much higher AUC”. For the same compound, the calcium transient levels ([2]; compared to control, FIG. 11) was “aberrant increase calcium transient levels”, the “time to peak calcium transient” value ([2]; compared to control, FIG. 11) was “decreased time to peak calcium transient” and the “contractility / contractile function” value [2] was “defective contractile function of cardiomyocytes”. The “Heart Weight/Body Weight ratio” value ([3]; PE 10 mg/kg/day, compared to sham (PBS), LY2835219 alone, and PE 2 weeks followed by 3 weeks LY2835219) was “significantly increased”, the “heart size (whole heart image)” value ([3]; PE treated group compared to control and drug treatment group, FIG. 14) was “enlarged” and the cardiac output ([3]; PE treated rats, after 2 weeks) was “decreased”. The ejection fraction ([3]; PE treated rats, after 2 weeks) was “decreased”, the percentage fractional shortening ([3]; PE treated rats, after 2 weeks) was “decreased” and the stroke volume ([3]; PE treated rats, after 2 weeks) was “decreased”. The “left ventricular internal diameter” value ([3]; PE treatment group) was “reduced”, the “thickness of left ventricular anterior wall” value [3, 8] was “increased thickness” and the “thickness of left ventricular posterior wall” value [3, 8] was “increased thickness”. For the same compound, the “thickness of septal wall” value [3, 8] was “increased thickness”, the “effect of phenylephrine on left ventricle (background)” value [5] was “myocardial hypertrophy of the LV, increased LV weight, systolic dysfunction, and increased expression of HF markers atrial natriuretic peptide and brain natriuretic peptide” and the “pathways involved in cardiac fibrosis (background)” value (cardiac fibrosis) was “stimulate pathways involved in cardiac fibrosis”.
